This is an account of results in ChEMBL document CHEMBL3639235, “Depsipeptides and their therapeutic use” (2014).

In the assay the target is Histone deacetylase 1 (Homo sapiens, UniProt Q13547). The experiment in a line: Fluorescent Activity Assay: In vitro HDAC assays were performed using a HDAC fluorescent activity assay kit (Biomol, UK) according to the manufacturer's instructions. Compounds were reduced prior to analysis; 1 mM compound was reduced with 30 mM DTT in DMSO overnight at room temperature, protected from light. Reactions were then set up in a 96-well plate. For each reaction 10 ul compound (5x required concentration in assay buffer) was mixed with […] diluted HeIa Nuclear Extract (30-fold in assay buffer). Serial dilutions were set up for each compound. Reactions containing HeIa extract only and assay buffer only were also set up. 25 ul diluted Fluor de Lys substrate (100-fold in assay buffer) was added to each reaction, which were then incubated at 37C for 1 hour. The reaction was stopped by addition of 50 ul Fluor de Lys Developer (20-fold dilution in assay buffer, plus TSA diluted 100-fold). The reactions were then incubated at room temperature for 10 minutes before fluorescence was measured.

SMILES strings stand for the structures.

Sequence of Histone deacetylase 1 (Q13547 whole entry): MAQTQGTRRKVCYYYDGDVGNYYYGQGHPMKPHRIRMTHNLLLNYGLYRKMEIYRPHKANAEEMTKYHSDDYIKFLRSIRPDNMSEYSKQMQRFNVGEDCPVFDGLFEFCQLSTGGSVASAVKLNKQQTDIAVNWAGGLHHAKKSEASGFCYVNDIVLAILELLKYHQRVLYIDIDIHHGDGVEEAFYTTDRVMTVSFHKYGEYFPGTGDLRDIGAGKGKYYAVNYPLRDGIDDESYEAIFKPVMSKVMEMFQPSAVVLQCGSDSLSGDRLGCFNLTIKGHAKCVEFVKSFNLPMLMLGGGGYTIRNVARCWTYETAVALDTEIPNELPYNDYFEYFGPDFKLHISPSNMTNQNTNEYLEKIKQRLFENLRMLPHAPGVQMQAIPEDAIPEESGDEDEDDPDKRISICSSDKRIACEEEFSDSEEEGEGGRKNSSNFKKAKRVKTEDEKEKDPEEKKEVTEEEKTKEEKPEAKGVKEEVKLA

What is called IC50 is the concentration that inhibits the measured activity by half. For `CC(=O)SCC/C=C/[C@@H]1CC(=O)N[C@H](C(C)C)C(=O)N[C@H](C)C(=O)N[C@H](C(C)C)[C@@H](O)CC(=O)O1`, the IC50 came to 0.0216 µM.
